{"source": "patent US20030129629A1", "about": "“Methods and compositions for the identification, assessment, prevention, and therapy of human cancers” (Millennium Pharmaceuticals, Inc., priority 2000, published 2003)", "key": {"[1]": {"tested_on": "60 cancer cell lines (NCI 60 cancer cell line series)", "conditions": "cited from earlier work"}, "[2]": {"tested_on": "60 cancer cell lines (NCI 60 cancer cell line series)", "assay": "NCI-DTP in vitro cancer screen, sulforhodamine B (SRB) growth inhibition, 48 hour exposure", "type": "cell-based, human", "in_short": "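Potency is given as mean −log{GI50} from dose–response curves, manually binned into Low, Medium or High sensitivity. Sixty NCI-DTP tumour lines were treated 48 h with a duplicate, five-dose, ten-fold dilution series, and growth read by SRB staining of cell mass.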"}}, "note": "Where two headings read alike, the source gives them in different places."}
{"smiles": "O=c1[nH]cc(F)c(=O)[nH]1", "note": "[5-Fluorouracil]", "values": [{"measurement": "−Log (GI50)", "setting": "[1]; Melanoma SK-MEL-2 CL10005", "result": 3.3}, {"measurement": "−Log (GI50)", "setting": "[1]; Melanoma SK-MEL-5 CL10007", "result": 4.9}, {"measurement": "−Log (GI50)", "setting": "[1]; Melanoma SK-MEL-28 CL10008", "result": 4.5}, {"measurement": "−Log (GI50)", "setting": "[1]; Melanoma UACC-62 CL10020", "result": 4.9}, {"measurement": "−Log (GI50)", "setting": "[1]; Melanoma UACC-257 CL10021", "result": 3.9}, {"measurement": "−Log (GI50)", "setting": "[1]; NSCLC A549/ATCC CL1004", "result": 5.7}, {"measurement": "−Log (GI50)", "setting": "[1]; NSCLC EKVX CL1008", "result": 3.3}, {"measurement": "−Log (GI50)", "setting": "[1]; NSCLC HOP-62 CL1026", "result": 4.8}, {"measurement": "−Log (GI50)", "setting": "[1]; NSCLC HOP-92 CL1029", "result": 4.0}, {"measurement": "−Log (GI50)", "setting": "[1]; NSCLC NCI-H226 CL1013", "result": 3.6}, {"measurement": "classification of cell line as Low(1), Medium(2), High(3) sensitivity to compound", "setting": "[2]; Breast BT-549 CL5013", "result": 1}, {"measurement": "classification of cell line as Low(1), Medium(2), High(3) sensitivity to compound", "setting": "[2]; Breast HS-578T CL5006", "result": 1}, {"measurement": "classification of cell line as Low(1), Medium(2), High(3) sensitivity to compound", "setting": "[2]; Breast MCF7(I) CL5001", "result": 3}, {"measurement": "classification of cell line as Low(1), Medium(2), High(3) sensitivity to compound", "setting": "[2]; Breast MCF7/ADRr CL5002", "result": 2}, {"measurement": "classification of cell line as Low(1), Medium(2), High(3) sensitivity to compound", "setting": "[2]; Breast MDA-MB-231 CL5005", "result": 1}, {"measurement": "classification of cell line as Low(1), Medium(2), High(3) sensitivity to compound", "setting": "[2]; Breast MDA-MB-435 CL5011", "result": 2}, {"measurement": "classification of cell line as Low(1), Medium(2), High(3) sensitivity to compound", "setting": "[2]; Breast MDA-N CL5012", "result": 2}, {"measurement": "classification of cell line as Low(1), Medium(2), High(3) sensitivity to compound", "setting": "[2]; Breast T-47D CL5014", "result": 2}, {"measurement": "classification of cell line as Low(1), Medium(2), High(3) sensitivity to compound", "setting": "[2]; CNS SF-268 CL12014", "result": 2}, {"measurement": "classification of cell line as Low(1), Medium(2), High(3) sensitivity to compound", "setting": "[2]; CNS SF-295 CL12015", "result": 2}, {"measurement": "classification of cell line as Low(1), Medium(2), High(3) sensitivity to compound", "setting": "[2]; CNS SF-539 CL12016", "result": 3}, {"measurement": "classification of cell line as Low(1), Medium(2), High(3) sensitivity to compound", "setting": "[2]; CNS SNB-19 CL12002", "result": 1}, {"measurement": "classification of cell line as Low(1), Medium(2), High(3) sensitivity to compound", "setting": "[2]; CNS SNB-75(I) CL12005", "result": 1}, {"measurement": "classification of cell line as Low(1), Medium(2), High(3) sensitivity to compound", "setting": "[2]; CNS U251(I) CL12009", "result": 2}, {"measurement": "classification of cell line as Low(1), Medium(2), High(3) sensitivity to compound", "setting": "[2]; Colon COLO-250 CL4010", "result": 2}, {"measurement": "classification of cell line as Low(1), Medium(2), High(3) sensitivity to compound", "setting": "[2]; Colon HCC-2998 CL4002", "result": 3}, {"measurement": "classification of cell line as Low(1), Medium(2), High(3) sensitivity to compound", "setting": "[2]; Colon HCT-15 CL4015", "result": 2}, {"measurement": "classification of cell line as Low(1), Medium(2), High(3) sensitivity to compound", "setting": "[2]; Colon HCT-116 CL4003", "result": 3}, {"measurement": "classification of cell line as Low(1), Medium(2), High(3) sensitivity to compound", "setting": "[2]; Colon HT29(I) CL4001", "result": 2}, {"measurement": "classification of cell line as Low(1), Medium(2), High(3) sensitivity to compound", "setting": "[2]; Colon KM12 CL4017", "result": 2}, {"measurement": "classification of cell line as Low(1), Medium(2), High(3) sensitivity to compound", "setting": "[2]; Colon SW-620 CL4009", "result": 2}, {"measurement": "classification of cell line as Low(1), Medium(2), High(3) sensitivity to compound", "setting": "[2]; Leukemia CCRF-CEM(I) CL7003", "result": 2}, {"measurement": "classification of cell line as Low(1), Medium(2), High(3) sensitivity to compound", "setting": "[2]; Leukemia HL-60(I) CL7008", "result": 2}, {"measurement": "classification of cell line as Low(1), Medium(2), High(3) sensitivity to compound", "setting": "[2]; Leukemia K562(I) CL7005", "result": 2}, {"measurement": "classification of cell line as Low(1), Medium(2), High(3) sensitivity to compound", "setting": "[2]; Leukemia MOLT-4 CL7006", "result": 2}, {"measurement": "classification of cell line as Low(1), Medium(2), High(3) sensitivity to compound", "setting": "[2]; Leukemia RPMI-8226(I) CL7010", "result": 3}, {"measurement": "classification of cell line as Low(1), Medium(2), High(3) sensitivity to compound", "setting": "[2]; Leukemia SR CL7019", "result": 2}, {"measurement": "classification of cell line as Low(1), Medium(2), High(3) sensitivity to compound", "setting": "[2]; Melanoma LOX IMVI CL10001", "result": 2}, {"measurement": "classification of cell line as Low(1), Medium(2), High(3) sensitivity to compound", "setting": "[2]; Melanoma M14 CL10014", "result": 2}, {"measurement": "classification of cell line as Low(1), Medium(2), High(3) sensitivity to compound", "setting": "[2]; Melanoma MALME-3M CL10002", "result": 2}, {"measurement": "classification of cell line as Low(1), Medium(2), High(3) sensitivity to compound", "setting": "[2]; Melanoma SK-MEL-2 CL10005", "result": 1}, {"measurement": "classification of cell line as Low(1), Medium(2), High(3) sensitivity to compound", "setting": "[2]; Melanoma SK-MEL-28 CL10008", "result": 2}, {"measurement": "sensitivity classification Low(1)/Medium(2)/High(3)", "setting": "[2]; NSCLC NCI-H23(I) CL1001", "result": 2}, {"measurement": "sensitivity classification Low(1)/Medium(2)/High(3)", "setting": "[2]; NSCLC NCI-H332M CL1017", "result": 2}, {"measurement": "sensitivity classification Low(1)/Medium(2)/High(3)", "setting": "[2]; NSCLC NCI-H460 CL1021", "result": 3}, {"measurement": "sensitivity classification Low(1)/Medium(2)/High(3)", "setting": "[2]; NSCLC NCI-H522 CL1003", "result": 2}, {"measurement": "sensitivity classification Low(1)/Medium(2)/High(3)", "setting": "[2]; Ovarian IGROV1 CL6010", "result": 2}, {"measurement": "sensitivity classification Low(1)/Medium(2)/High(3)", "setting": "[2]; Ovarian OVCAR-3 CL6001", "result": 2}, {"measurement": "sensitivity classification Low(1)/Medium(2)/High(3)", "setting": "[2]; Ovarian OVCAR-4 CL6002", "result": 2}, {"measurement": "sensitivity classification Low(1)/Medium(2)/High(3)", "setting": "[2]; Ovarian OVCAR-5 CL6003", "result": 1}, {"measurement": "sensitivity classification Low(1)/Medium(2)/High(3)", "setting": "[2]; Ovarian OVCAR-8 CL6005", "result": 2}, {"measurement": "sensitivity classification Low(1)/Medium(2)/High(3)", "setting": "[2]; Ovarian SK-OV-3 CL6011", "result": 1}, {"measurement": "sensitivity classification Low(1)/Medium(2)/High(3)", "setting": "[2]; Prostate DU-145 CL11003", "result": 2}, {"measurement": "sensitivity classification Low(1)/Medium(2)/High(3)", "setting": "[2]; Prostate PC-3(I) CL11001", "result": 2}, {"measurement": "sensitivity classification Low(1)/Medium(2)/High(3)", "setting": "[2]; Renal 786-0 CL9018", "result": 2}, {"measurement": "sensitivity classification Low(1)/Medium(2)/High(3)", "setting": "[2]; Renal A498 CL9013", "result": 2}, {"measurement": "sensitivity classification Low(1)/Medium(2)/High(3)", "setting": "[2]; Renal ACHN CL9023", "result": 2}, {"measurement": "sensitivity classification Low(1)/Medium(2)/High(3)", "setting": "[2]; Renal CAKI-1 CL9015", "result": 3}, {"measurement": "sensitivity classification Low(1)/Medium(2)/High(3)", "setting": "[2]; Renal RXF-393 CL9016", "result": 2}, {"measurement": "sensitivity classification Low(1)/Medium(2)/High(3)", "setting": "[2]; Renal SN12C CL9008", "result": 2}, {"measurement": "sensitivity classification Low(1)/Medium(2)/High(3)", "setting": "[2]; Renal TK10 CL9024", "result": 1}, {"measurement": "sensitivity classification Low(1)/Medium(2)/High(3)", "setting": "[2]; Renal UO-31 CL9004", "result": 2}]}
